Laboratory results taken from US10213451B2, “Methods and compounds for modulating the secretion or expression of adhesion proteins or angiopoietins of cells” (PACIFIC ARROW LIMITED, priority 2004, dated 2019).

Legend:
Assay type in all cases: cell-based, human
[1] = tested on: integrin (vitronectin receptor) expression in ES2 cells; experiment: Microarray gene expression, Table 2
Experimental: (§1) Y/D is the ratio (in folds) of gene expression in cells treated with compound Y as compared with those of the no drug control (D),
(§2) YM/D is the ratio of gene expression in cells treated with compound YM (ACH-Y, Y without sugar moiety) compared with those of the no drug control (D)
(§3) Cell culture and drug-treatment.: ES2 cells were seeded in a T-25 flask with 4.5 million cells per flask for 24 hours. Cell culture was replaced with fresh medium with xanifolia-Y (Y) or DMSO no drug control (D) for 24 hours. Cells were then harvested for RNA isolation. Three experiments were done.
(§4) RNA extraction, labeling, hybridization, and data analysis. RNA was extracted from tumor cells using the Qiagen RNeasy Kit. RNA quality and quantity was checked by the Agilent BioAnalyzer and the NanoDrop® ND-1000 spectrophotometer respectively before further manipulation. The first and second cDNA strands were synthesized from 20 ng of total RNA using the Affymetrix T7 oligo(dT) primer protocol and kit for the two-cycle amplification. To produce amplified biotin-labeled-cRNA, the cDNA was […] by in vitro transcription using the MegaScript kit from Ambion. 15.0 μg of the labeled cRNA was fragmented and re-checked for concentration using the NanoDrop® ND-1000 spectrophotometer. A hybridization cocktail containing Affymetrix spike-in controls and fragmented labeled cRNA was loaded onto the Human U133 Plus 2.0 GeneChip® oligonucleotide array. The Affymetrix array (Affymetrix, Inc. Santa Clara, Calif.) is comprised of over 1,300,000 unique oligonucleotide features that represent greater than 38,500 well-substantiated human genes. The array was hybridized for 16 hours at 45° C. with rotation at 60 rpm then washed and stained with a strepavidin, R-phycoerythrin conjugate stain on the Affymetrix Fluidicis Station 450. Signal amplification was done using biotinylated antistreptavidin. The arrays were scanned using the GeneChip® 3000 confocal laser scanner with autoloader. The images were analyzed and quality control metrics recorded using Affymetrix GCOS software version 1.4. Lastly, the expression value for each gene was calculated using dChip PM-only model based or Plier algorithm.
(§5) Pairwise comparisons were made as follows: Treated vs. Control (Y vs. D), Modified Drug vs Control (YM/ACY-H vs. D) and Treated vs. Modified Drug (Y vs. YM/ACH-Y) Cel files analyzed using the Bioconductor package of R Statistical programming. Limma analysis generated a reasonable number of changing genes between the samples.
The raw data in the .CEL files were normalized by the GCRMA method (robust multi-array analysis). It is implemented in Bioconductor (http://www.bioconductor.org/). […]

[2] = tested on: Fibronectin secretion from skin SK-Mel-5 cells; experiment: Fibronectin secretion (Western blot), SK-MEL-5 cells; conditions: Homo sapiens, 30 ug/ml
[3] = tested on: potassium channel, subfamily U, protein expression in ES2 cells; experiment: Microarray gene expression, Table 18; conditions: probe 237273_at
Experimental: as §1, §2, §3
RNA extraction, labeling, hybridization, and data analysis. RNA was extracted from tumor cells using the Qiagen RNeasy Kit. RNA quality and quantity was checked by the Agilent BioAnalyzer and the NanoDrop® ND-1000 spectrophotometer respectively before further manipulation. […] The images were analyzed and quality control metrics recorded using Affymetrix GCOS software version 1.4. Lastly, the expression value for each gene was calculated using dChip PM-only model based or Plier algorithm.
Pairwise comparisons were made as follows: Treated vs. Control (Y vs. D), Modified Drug vs Control (YM/ACY-H vs. D) and Treated vs. Modified Drug (Y vs. YM/ACH-Y) Cel files analyzed using the Bioconductor package of R Statistical programming. […]

[4] = tested on: integrin expression in ES2 cells; experiment: Microarray gene expression, Table 6
Experimental: as §1, §2, §3, §4, §5
(§6) The raw data in the .CEL files were normalized by the GCRMA method (robust multi-array analysis). It is implemented in Bioconductor (http://www.bioconductor.org/). The raw signal intensity data were normalized, background corrected and summarized based on certain statistical models, and an expression value, in log 2-scale, is obtained per chip per probe set. Then the null hypothesis was tested that there's no significant changes in gene expression between the treatment pairs. This was done by LIMMA and is also implemented in Bioconductor. It uses empirical Bayes method to estimate the variance in gene expression. One comparison was made, namely, High Grade vs. Low Grade. The raw p-values were adjusted by the Benjamnin-Hochberg method for false discovery rate (FDR) control. All data sets contained a significant number of genes with a p-value less than 0.05, which is that the probability that a gene is NOT differential expressed (false positive) is 1:20.

[5] = tested on: Fibronectin secretion from liver HepG2 cells; experiment: Fibronectin secretion (Western blot), HepG2 cells; conditions: Homo sapiens, HepG2, HepG2 cells, 30 ug/ml
[6] = tested on: CAM expression in ES2 cells; experiment: Microarray gene expression, Table 4
Experimental: as §1, §2, §3, §4, §5, §6

[7] = tested on: Fibronectin secretion from lung carcinoma cells (H460); experiment: Fibronectin secretion (Western blot), H460 cells; conditions: Homo sapiens, NCI-H460, H460 cells, 20 ug/ml
[8] = tested on: cadherins expression in ES2 cells; experiment: Microarray gene expression, Table 8
Experimental: as §1, §2, §3, §4, §5, §6

[9] = tested on: RAB3B, member RAS oncogene family protein expression in ES2 cells; experiment: Microarray gene expression, Table 17
Experimental: as §1, §2, §3, §4, §5, §6

[10] = tested on: fibronectin expression in ES2 cells; experiment: Microarray gene expression, Table 1
Experimental: as §1, §2, §3, §4, §5, §6

C/C=C(/C)C(=O)O[C@H]1[C@H](OC(=O)/C(C)=C\C)[C@@]2(CO)C(CC1(C)C)C1=CCC3[C@@]4(C)CC[C@H](O)C(C)(C)C4CC[C@@]3(C)[C@]1(C)[C@@H](O)[C@H]2O (some centres unmarked) [ACH-Y]
ITGAV integrin, alpha V (vitronectin receptor), gene expression ratio to no drug control (D) ([1]; probe 202351_at): −1.3 folds
ITGAV integrin, alpha V (vitronectin receptor), gene expression ratio to no drug control (D) ([1]; probe 236251_at): −1.4 folds
inhibition at 30 µg/mL [2]: 21%
KCNU1 potassium channel, subfamily U, member 1, gene expression ratio to no drug control (D) [3]: −1.9 folds
ITGA3 integrin, alpha 3, gene expression ratio to no drug control (D) ([4]; probe 201474_s_at): −1.5 folds
ITGA6 integrin, alpha 6, gene expression ratio to no drug control (D) ([4]; probe 201656_at): −1.1 folds
ITGAV integrin, alpha V (vitronectin receptor), gene expression ratio to no drug control (D) ([4]; probe 202351_at): −1.3 folds
ITGBL1 Integrin, beta-like 1, gene expression ratio to no drug control (D) ([4]; probe 205422_s_at): −2.0 folds
ITGA4 integrin, alpha 4, gene expression ratio to no drug control (D) ([4]; probe 205884_at): −1.7 folds
ITGA4 integrin, alpha 4, gene expression ratio to no drug control (D) ([4]; probe 205885_s_at): −2.0 folds
ITGA4 integrin, alpha 4, gene expression ratio to no drug control (D) ([4]; probe 213416_at): −1.7 folds
ITGB5 Integrin, beta 5, gene expression ratio to no drug control (D) ([4]; probe 214021_x_at): −2.2 folds
ITGBL1 Integrin, beta-like 1, gene expression ratio to no drug control (D) ([4]; probe 214927_at): −1.8 folds
ITGA6 integrin, alpha 6, gene expression ratio to no drug control (D) ([4]; probe 215177_s_at): 1.1 folds
CD47 antigen (integrin-associated signal transducer), gene expression ratio to no drug control (D) ([4]; probe 227259_at): −1.1 folds
ITGB2 integrin, beta 2, gene expression ratio to no drug control (D) ([4]; probe 1555349_a_at): −1.4 folds
ITGBL1 Integrin, beta-like 1, gene expression ratio to no drug control (D) ([4]; probe 1557080_s_at): −2.5 folds
expression ratio to the control, integrin family ([4]; span over probes of Table 6): −1.1 to −2.5 folds
inhibition at 30 µg/mL [5]: 21%
ALCAM activated leukocyte cell adhesion molecule, gene expression ratio to no drug control (D) ([6]; probe 201951_at): −1.7 folds
ALCAM activated leukocyte cell adhesion molecule, gene expression ratio to no drug control (D) ([6]; probe 201952_at): −1.4 folds
SCAMP1 secretory carrier membrane protein 1, gene expression ratio to no drug control (D) ([6]; probe 206667_s_at): −1.5 folds
SCAMP1 secretory carrier membrane protein 1, gene expression ratio to no drug control (D) ([6]; probe 212416_at): −1.1 folds
SCAMP1 secretory carrier membrane protein 1, gene expression ratio to no drug control (D) ([6]; probe 212417_at): −1.4 folds
SCAMP1 secretory carrier membrane protein 1, gene expression ratio to no drug control (D) ([6]; probe 212425_at): −1.5 folds
TICAM2 toll-like receptor adaptor molecule 2, gene expression ratio to no drug control (D) ([6]; probe 228234_at): −1.3 folds
TICAM2 toll-like receptor adaptor molecule 2, gene expression ratio to no drug control (D) ([6]; probe 239431_at): −1.3 folds
ALCAM activated leukocyte cell adhesion molecule, gene expression ratio to no drug control (D) ([6]; probe 240655_at): −1.3 folds
inhibiting ratio to the control, genes related to the adhesion molecule ([6]; span over different probes of Table 4): −1.1 to −1.7 folds
inhibition at 20 µg/mL [7]: 28%
CTNNB1 catenin (cadherin-associated protein), beta 1, 88 kDa, gene expression ratio to no drug control (D) ([8]; probe 201533_at): 1.2 folds
CTNNAL1 catenin (cadherin-associated protein), alpha-like 1, gene expression ratio to no drug control (D) ([8]; probe 202468_s_at): −1.6 folds
CDH2 cadherin 2, type 1, N-cadherin (neuronal), gene expression ratio to no drug control (D) ([8]; probe 203440_at): 1.0 folds
CDH5 cadherin 5, type 2, VE-cadherin, gene expression ratio to no drug control (D) ([8]; probe 204677_at): −1.1 folds
CDH13 cadherin 13, H-cadherin (heart), gene expression ratio to no drug control (D) ([8]; probe 204726_at): −1.7 folds
CDH12 cadherin 12, type 2 (N-cadherin 2), gene expression ratio to no drug control (D) ([8]; probe 207149_at): −2.2 folds
CTNND1 catenin (cadherin-associated, protein), delta 1, gene expression ratio to no drug control (D) ([8]; probe 208407_s_at): −1.7 folds
CTNNA1 catenin (cadherin-associated protein), alpha 1, 102 kDa, gene expression ratio to no drug control (D) ([8]; probe 210844_x_at): −1.2 folds
CDH13 cadherin 13, H-cadherin (heart), gene expression ratio to no drug control (D) ([8]; probe 244091_at): −1.7 folds
RAB3B, member RAS oncogene family, gene expression ratio to no drug control (D) ([9]; probe 205924_at): −1.8 folds
RAB3B, member RAS oncogene family, gene expression ratio to no drug control (D) ([9]; probe 205925_s_at): −1.2 folds
RAB3B, member RAS oncogene family, gene expression ratio to no drug control (D) ([9]; probe 227123_at): −1.2 folds
RAB3B, member RAS oncogene family, gene expression ratio to no drug control (D) ([9]; probe 242629_at): −1.8 folds
FN1 fibronectin 1, gene expression ratio to no drug control (D) ([10]; probe 210495_x_at): −1.1 folds
FN1 fibronectin 1, gene expression ratio to no drug control (D) ([10]; probe 211719_x_at): −1.2 folds
FN1 fibronectin 1, gene expression ratio to no drug control (D) ([10]; probe 212464_s_at): −1.1 folds
FN1 fibronectin 1, gene expression ratio to no drug control (D) ([10]; probe 216442_x_at): −1.1 folds
